# Data reported in US10294202B2, “Pyrrolidinones as herbicides” (FMC Corporation, priority 2013, dated 2019).
# Key:
# [1] = tested on: giant foxtail; assay: Test A pre-/postemergence herbicide test; assay type: in vivo, Setaria faberii
# Summary of the method: (§1)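 Scoring was visual, relative to untreated controls, on a 0–100 scale after about 10 greenhouse days. Preemergence treatment used a directed soil spray over seeded loam/sand; postemergence treatment targeted one- to two-leaf plants of 2–10 cm.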
# [2] = tested on: wheat; assay: Test A pre-/postemergence herbicide test; assay type: in vivo, Triticum aestivum; conditions: Postemergence
# Summary of the method: as §1
# [3] = tested on: corn; assay: Test A pre-/postemergence herbicide test; assay type: in vivo, Zea mays; conditions: Postemergence
# Summary of the method: as §1
# [4] = tested on: sedge, umbrella; assay: Test B flooded paddy test; assay type: in vivo, Cyperus difformis; conditions: 500 g ai/ha, Flood; scale of 0 to 100 where 0 is no effect and 100 is complete control
# Summary of the method: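 Treatment was made at the 2-leaf stage by dosing the standing floodwater, kept 3 cm above soil level for the whole test. Greenhouse exposure lasted 13 to 15 days. Response is a visual percent rating relative to controls, where a dash indicates no test result.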
# [5] = tested on: blackgrass; assay: Test C pre-/postemergence herbicide test; assay type: in vivo, Alopecurus myosuroides
# Summary of the method: (§2)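 Response scores range from 0, meaning no effect, to 100, meaning complete control, assigned visually by comparison with controls roughly two weeks (13 to 15 days) after spraying. Applications were made preemergence to seeded loam–sand soil and postemergence to 1- to 4-leaf plants.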
# [6] = tested on: galium; assay: Test C pre-/postemergence herbicide test; assay type: in vivo, Galium aparine
# Summary of the method: as §2
# [7] = tested on: corn; assay: Test C pre-/postemergence herbicide test; assay type: in vivo, Zea mays
# Summary of the method: as §2
# [8] = tested on: foxtail, giant; assay: Test C pre-/postemergence herbicide test; assay type: in vivo, Setaria faberii
# Summary of the method: as §2
# [9] = tested on: johnsongrass; assay: Test C pre-/postemergence herbicide test; assay type: in vivo, Sorghum halepense
# Summary of the method: as §2
# [10] = tested on: ragweed; assay: Test C pre-/postemergence herbicide test; assay type: in vivo, Ambrosia elatior
# Summary of the method: as §2
# [11] = tested on: oilseed rape; assay: Test C pre-/postemergence herbicide test; assay type: in vivo, Brassica napus
# Summary of the method: as §2
# [12] = Postemergence, 125 g ai/ha, visual rating on 0 to 100 scale (0 no effect, 100 complete control), approx. 10 days
# [13] = Postemergence, 500 g ai/ha, 0 to 100 scale (0 no effect, 100 complete control)
# [14] = Preemergence, 125 g ai/ha, 0 to 100 scale where 0 is no effect and 100 is complete control
# [15] = Preemergence, 500 g ai/ha, visual rating on 0 to 100 scale (0 no effect, 100 complete control)
# [16] = 125 g ai/ha, visual rating on 0 to 100 scale (0 no effect, 100 complete control), approx. 10 days
# [17] = 500 g ai/ha, 0 to 100 scale (0 no effect, 100 complete control)
# [18] = Postemergence, 31 g ai/ha, scale 0 to 100 (0 no effect, 100 complete control)
# [19] = Postemergence, 62 g ai/ha, scale 0 (no effect) to 100 (complete control)
# [20] = Postemergence, 125 g ai/ha, scale 0 to 100 (0 no effect, 100 complete control)
# [21] = Postemergence, 250 g ai/ha, scale 0 to 100 (0 no effect, 100 complete control)
# [22] = Preemergence, 31 g ai/ha, scale 0 to 100, 0 is no effect and 100 is complete control
# [23] = Preemergence, 62 g ai/ha, scale 0 to 100 (0 no effect, 100 complete control)
# [24] = Preemergence, 125 g ai/ha, scale 0 to 100 (0 no effect, 100 complete control)
# [25] = Preemergence, 125 g ai/ha, scale 0 to 100
smiles,measurement,setting,value
CN1CC(c2ccc(C(F)(F)F)cc2)C(C(=O)Nc2cccc(F)c2F)C1=O (stereo not shown) [Compound 306],"Plant response rating, Foxtail, Giant",[1]; [12],80
same,"Plant response rating, Foxtail, Giant",[1]; [13],80
same,"Plant response rating, Foxtail, Giant",[1]; [14],90
same,"Foxtail, Giant plant response rating",[1]; [15],90
same,"Plant response rating, Wheat",[2]; [16],50
same,"Plant response rating, Wheat",[2]; [17],60
same,"Plant response rating, Corn",[3]; [16],50
same,"Plant response rating, Corn",[3]; [17],70
same,"Plant response rating, Sedge, Umbrella",[4],0
same,"Plant response rating, Blackgrass",[5]; [18],0
same,"Plant response rating, Blackgrass",[5]; [19],0
same,"Plant response rating, Blackgrass",[5]; [20],5
same,"Plant response rating, Blackgrass",[5]; [21],5
same,Blackgrass plant response rating,[5]; [22],0
same,Blackgrass plant response rating,[5]; [23],30
same,"Plant response rating, Blackgrass",[5]; [24],60
same,"Plant response rating (scale of 0 to 100), Blackgrass","[5]; Preemergence, 250 g ai/ha",90
same,Galium plant response rating,[6]; [22],90
same,Galium plant response rating,[6]; [23],60
same,"Plant response rating, Galium",[6]; [24],90
same,"Plant response rating (scale of 0 to 100), Galium","[6]; Preemergence, 250 g ai/ha",90
same,"Plant response rating, Corn",[7]; [18],0
same,"Plant response rating, Corn",[7]; [19],0
same,"Plant response rating, Corn",[7]; [20],0
same,"Plant response rating, Corn",[7]; [21],20
same,Corn plant response rating,[7]; [22],40
same,Corn plant response rating,[7]; [23],60
same,"Plant response rating, Corn",[7]; [24],80
same,"Plant response rating (scale of 0 to 100), Corn","[7]; Preemergence, 250 g ai/ha",75
same,"Plant response rating, Foxtail, Giant",[8]; [18],5
same,"Plant response rating, Foxtail, Giant",[8]; [19],75
same,"Plant response rating, Foxtail, Giant",[8]; [20],60
same,"Plant response rating, Foxtail, Giant",[8]; [21],85
same,"Foxtail, Giant plant response rating",[8]; [22],90
same,"Foxtail, Giant plant response rating",[8]; [23],95
same,"Plant response rating, Foxtail, Giant",[8]; [24],95
same,"Plant response rating (scale of 0 to 100), Foxtail, Giant","[8]; Preemergence, 250 g ai/ha",100
same,"Plant response rating, Johnsongrass",[9]; [18],0
same,"Plant response rating, Johnsongrass",[9]; [19],0
same,"Plant response rating, Johnsongrass",[9]; [20],0
same,"Plant response rating, Johnsongrass",[9]; [21],0
same,Johnsongrass plant response rating,[9]; [22],35
same,Johnsongrass plant response rating,[9]; [23],55
same,"Plant response rating, Johnsongrass",[9]; [24],80
same,"Plant response rating (scale of 0 to 100), Johnsongrass","[9]; Preemergence, 250 g ai/ha",85
same,"Plant response rating, Ragweed",[10]; [18],60
same,"Plant response rating, Ragweed",[10]; [19],55
same,"Plant response rating, Ragweed",[10]; [20],80
same,"Plant response rating, Ragweed",[10]; [21],85
same,Ragweed plant response rating,[10]; [23],75
same,"Plant response rating, Ragweed",[10]; [24],75
same,"Plant response rating (scale of 0 to 100), Ragweed","[10]; Preemergence, 250 g ai/ha",80
same,"Plant response rating, Oilseed Rape",[11]; [18],0
same,"Plant response rating, Oilseed Rape",[11]; [19],50
same,"Plant response rating, Oilseed Rape",[11]; [20],40
same,"Plant response rating, Oilseed Rape",[11]; [21],70
same,Oilseed Rape plant response rating,[11]; [22],50
same,Oilseed Rape plant response rating,[11]; [23],70
same,"Plant response rating, Oilseed Rape",[11]; [24],75
same,"Plant response rating (scale of 0 to 100), Oilseed Rape","[11]; Preemergence, 250 g ai/ha",75
O=C1NCC(c2cccc(Br)c2)C1C(=O)Nc1ccc(F)c(F)c1F (stereo not shown) [Compound 310],"Plant response rating, Foxtail, Giant",[1]; [12],90
same,"Plant response rating, Foxtail, Giant",[1]; [13],90
same,"Plant response rating, Foxtail, Giant",[1]; [14],90
same,"Foxtail, Giant plant response rating",[1]; [15],90
same,"Plant response rating, Wheat",[2]; [16],30
same,"Plant response rating, Wheat",[2]; [17],50
same,"Plant response rating, Corn",[3]; [16],20
same,"Plant response rating, Corn",[3]; [17],50
same,"Plant response rating, Sedge, Umbrella",[4],0
same,"Plant response rating, Blackgrass",[5]; [18],0
same,"Plant response rating, Blackgrass",[5]; [19],0
same,"Plant response rating, Blackgrass",[5]; [20],5
same,"Plant response rating, Blackgrass",[5]; [21],5
same,Blackgrass plant response rating,[5]; [22],0
same,Blackgrass plant response rating,[5]; [23],5
same,"Plant response rating, Blackgrass",[5]; [25],50
same,"Plant response rating (scale of 0 to 100), Blackgrass","[5]; Preemergence, 250 g ai/ha",45
same,"Plant response rating, Galium",[6]; [18],35
same,"Plant response rating, Galium",[6]; [19],50
same,"Plant response rating, Galium",[6]; [20],50
same,"Plant response rating, Galium",[6]; [21],65
same,Galium plant response rating,[6]; [22],0
same,Galium plant response rating,[6]; [23],0
same,"Plant response rating, Galium",[6]; [25],0
same,"Plant response rating (scale of 0 to 100), Galium","[6]; Preemergence, 250 g ai/ha",70
same,"Plant response rating, Corn",[7]; [18],0
same,"Plant response rating, Corn",[7]; [19],0
same,"Plant response rating, Corn",[7]; [20],60
same,"Plant response rating, Corn",[7]; [21],30
same,Corn plant response rating,[7]; [22],0
same,Corn plant response rating,[7]; [23],0
same,"Plant response rating, Corn",[7]; [25],55
same,"Plant response rating (scale of 0 to 100), Corn","[7]; Preemergence, 250 g ai/ha",55
same,"Plant response rating, Foxtail, Giant",[8]; [18],0
same,"Plant response rating, Foxtail, Giant",[8]; [19],5
same,"Plant response rating, Foxtail, Giant",[8]; [20],30
same,"Plant response rating, Foxtail, Giant",[8]; [21],70
same,"Foxtail, Giant plant response rating",[8]; [22],80
same,"Foxtail, Giant plant response rating",[8]; [23],85
same,"Plant response rating, Foxtail, Giant",[8]; [25],90
same,"Plant response rating (scale of 0 to 100), Foxtail, Giant","[8]; Preemergence, 250 g ai/ha",90
same,"Plant response rating, Johnsongrass",[9]; [18],0
same,"Plant response rating, Johnsongrass",[9]; [19],0
same,"Plant response rating, Johnsongrass",[9]; [20],0
same,"Plant response rating, Johnsongrass",[9]; [21],5
same,Johnsongrass plant response rating,[9]; [22],0
same,Johnsongrass plant response rating,[9]; [23],0
same,"Plant response rating, Johnsongrass",[9]; [25],45
same,"Plant response rating (scale of 0 to 100), Johnsongrass","[9]; Preemergence, 250 g ai/ha",75
same,"Plant response rating, Ragweed",[10]; [18],10
same,"Plant response rating, Ragweed",[10]; [19],10
same,"Plant response rating, Ragweed",[10]; [20],20
same,"Plant response rating, Ragweed",[10]; [21],60
same,Ragweed plant response rating,[10]; [23],0
same,"Plant response rating, Ragweed",[10]; [25],5
same,"Plant response rating (scale of 0 to 100), Ragweed","[10]; Preemergence, 250 g ai/ha",35
same,"Plant response rating, Oilseed Rape",[11]; [18],0
same,"Plant response rating, Oilseed Rape",[11]; [19],0
same,"Plant response rating, Oilseed Rape",[11]; [20],0
same,"Plant response rating, Oilseed Rape",[11]; [21],40
same,Oilseed Rape plant response rating,[11]; [22],0
same,Oilseed Rape plant response rating,[11]; [23],5
same,"Plant response rating, Oilseed Rape",[11]; [25],40
same,"Plant response rating (scale of 0 to 100), Oilseed Rape","[11]; Preemergence, 250 g ai/ha",85
